According to patent publication US6492364B1, “Triazolo and derivatives as chemokine inhibitors” (Toray Industries, Inc., priority 1998, dated 2002):
Counter-ions that a name gives are not always drawn.

How the values were obtained:
[1] = target: T1, CCR1 (Homo sapiens, UniProt P32246); assay: Inhibition of RANTES-induced intracellular calcium increase in THP-1 cells (Fura-2); type: cell-based; conditions: human monocytic cell line THP-1, stimulated with RANTES (40 ng/ml), intracellular calcium level
T1 construct: endogenous in cells; host or cells: THP-1 (human monocytic cell line)
T1 sequence (P32246 1-355): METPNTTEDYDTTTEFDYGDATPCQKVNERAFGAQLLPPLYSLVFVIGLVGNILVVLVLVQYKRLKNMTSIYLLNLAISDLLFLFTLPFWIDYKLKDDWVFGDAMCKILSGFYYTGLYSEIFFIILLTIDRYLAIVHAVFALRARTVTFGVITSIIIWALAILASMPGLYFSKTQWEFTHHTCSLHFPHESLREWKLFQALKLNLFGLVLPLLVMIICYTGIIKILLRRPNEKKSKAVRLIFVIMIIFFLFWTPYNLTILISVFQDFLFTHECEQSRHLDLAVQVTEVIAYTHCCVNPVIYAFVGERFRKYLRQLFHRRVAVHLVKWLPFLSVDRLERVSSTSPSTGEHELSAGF
Protocol: (§1) The CCR receptor-inhibiting activities of the compounds represented by Formula I will now be described. Using human eosinophil or human monocytic cell line (THP-1), the CCR receptor-inhibiting activities were studied.
(§2) Human peripheral blood eosinophils or THP- l cells were suspended in RPMI-1640 culture medium containing 1% fetal calf serum (FCS) and cultured at 37° C. for 30 minutes in the presence of 5 μM of Fura-2/AM (DOJINDO LABORATORIES). The cells were washed twice with assay buffer (140 mM NaCl, 10 mM KCl, 1.8mM CaCl2, 1 mM MgCl2, 1 mM Na2HPO4, 25mM HEPES, 5 mM glucose, 1% BSA; pH7.4) at 4° C. to remove Fura-2/AM which was not taken into the cells. The cells were suspended in the assay buffer to a final cell density of 1×10^6 cells/ml and the cell suspension was stored in the dark until assay. The calcium levels in the cells were measured by using CAF100 commercially available from Nippon Koden Co. That is, 490 μl of the suspension of the cells loaded with Fura-2 was placed in a cuvette and the cuvette was set in CAF100. After the fluorescence intensities at 340 nm and 380 nm of excitation, as well as the ratio thereof, were stabilized, 10 μl of 250 μM solution of each test compound was injected. The change in the calcium level in the cells within one minute from the stimulation was measured in terms of the ratio (F340/F380) of the intensity of the excitation light at 340 nm to that of the light at 380 nm, and the intracellular calcium level induced by the stimulation was defined as the peak of the ratio. One minute after exposure of the cells to each test compound, the cells were stimulated with eotaxin (5 ng/ml), RANTES (40 ng/ml) or MCP-1 (10 ng/ml). It is thought that the responses by THP-1 cells to RANTES and MCP-1 are mediated through CCR1 and CCR2, respectively; The response of eosinophils to eotaxin is thought to be mediated through CCR3. The increase of the intracellular calcium level was compared to that of the corresponding case wherein the cells were not treated with the test compound.

[2] = target: T2, CCR2 (Homo sapiens, UniProt P41597); assay: Inhibition of MCP-1-induced intracellular calcium increase in THP-1 cells (Fura-2); type: cell-based; conditions: human monocytic cell line THP-1, stimulated with MCP-1 (10 ng/ml), intracellular calcium level
T2 construct: endogenous in cells; host or cells: THP-1 (human monocytic cell line)
T2 sequence (P41597 1-360 isoform P41597-2): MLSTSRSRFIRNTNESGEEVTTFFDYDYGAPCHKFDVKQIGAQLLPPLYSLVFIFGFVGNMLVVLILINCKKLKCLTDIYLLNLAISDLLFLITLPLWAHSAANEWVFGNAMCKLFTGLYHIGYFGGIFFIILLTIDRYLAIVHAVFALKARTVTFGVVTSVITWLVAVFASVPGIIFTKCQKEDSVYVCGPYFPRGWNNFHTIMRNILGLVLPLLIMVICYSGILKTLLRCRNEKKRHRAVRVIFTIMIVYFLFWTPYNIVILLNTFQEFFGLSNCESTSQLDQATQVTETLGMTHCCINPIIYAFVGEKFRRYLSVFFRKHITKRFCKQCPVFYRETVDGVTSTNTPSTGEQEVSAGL
Protocol: as §1, §2

[3] = target: T3, CCR3 (Homo sapiens, UniProt P51677); assay: Inhibition of eotaxin-induced intracellular calcium increase in human eosinophils (Fura-2); type: cell-based; conditions: human peripheral blood eosinophils, stimulated with eotaxin (5 ng/ml), intracellular calcium level
T3 construct: endogenous in cells; host or cells: human peripheral blood eosinophils (primary cells)
T3 sequence (P51677 1-355): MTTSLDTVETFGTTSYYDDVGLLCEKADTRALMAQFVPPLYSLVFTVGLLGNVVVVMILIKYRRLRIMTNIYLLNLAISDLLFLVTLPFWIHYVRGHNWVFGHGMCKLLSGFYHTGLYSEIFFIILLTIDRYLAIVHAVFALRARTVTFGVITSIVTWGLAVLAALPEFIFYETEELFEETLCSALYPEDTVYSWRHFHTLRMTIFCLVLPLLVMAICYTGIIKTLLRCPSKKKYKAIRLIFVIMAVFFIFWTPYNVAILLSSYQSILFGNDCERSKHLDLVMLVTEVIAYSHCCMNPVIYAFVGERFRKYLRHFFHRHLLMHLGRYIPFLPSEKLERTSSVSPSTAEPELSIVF
Protocol: as §1, §2

SMILES | IC50 [1] | IC50 [2] | IC50 [3] | melting point
Cc1nnc2n(CCCN3CCN(Cc4ccccc4-c4ccccc4)CC3)c(=O)c3ccccc3n12 [Compound 11, 2,4,5,7-Tetraaza-3-methyl-7-(3-(4-((2-phenylphenyl)methyl)piperazinyl)propyl)tricyclo[7.4.0.0<2,6>]trideca-1(13),3,5,9(10),11-pentaene-8-one] | 9.1 µM | > 160 µM | 3.6 µM | –
Cc1nnc2n(CCCN3CCN(C(c4ccccc4)c4ccccc4)CC3)c(=O)c3cc(O)ccc3n12 [Compound 40] | – | – | – | 225 to 228 °C
Cc1nnc2n(CCCN3CCN(C(c4ccccc4)c4ccccc4)CC3)c(=O)c3cc(N(C)C)ccc3n12 [Compound 47] | – | – | – | 189 to 191 °C
Cc1nnc2n(CCCN3CCC(c4c[nH]c5ccccc45)CC3)c(=O)c3ccccc3n12 [Compound 6, 2,4,5,7-Tetraaza-7-(3-(4-indole-3-ylpiperidyl)propyl)-3-methyltricyclo[7.4.0.0<2,6>]trideca-1(13),3,5,9(10),11-pentaene-8-one] | – | – | – | 207 to 209 °C (dec.)
Cc1nnc2n(CCCN3CCN(C(c4ccccc4)c4ccccc4)CC3)c(=O)c3ccc(C(F)(F)F)cc3n12 [Compound 45] | – | – | – | 154 to 159.5 °C
Cc1nnc2n(CCCN3CCN(C(c4ccccc4)c4ccccc4)CC3)c(=O)c3ccccc3n12 [Compound 26] | 4.1 µM | > 160 µM | 0.3 µM | 168 to 173 °C
Cc1nnc2n(CCCN3CCN(C(c4ccccc4)c4ccccc4)CC3)c(=O)c3cc(Cl)ccc3n12 [Compound 38] | 16 µM | > 160 µM | 0.5 µM | 116 to 118 °C
Cc1nnc2c(CCCN3CCC(C(c4ccccc4)c4ccccc4)CC3)nc3ccccc3n12 [Compound 74] | – | – | – | 88 to 90 °C
Cc1nnc2n(CCCN3CCN(Cc4ccc(Cl)c(Cl)c4)CC3)c(=O)c3ccccc3n12 [Compound 93, 2,4,5,7-Tetraaza-7-(3-(4-(3,4-dichlorobenzyl)piperazine-1-yl)propyl)-3-methyltricyclo[7.4.0.0<2,6>]trideca-1(13),3,5,9(10),11-pentaene-8-one] | – | – | – | 77 to 79 °C
Cc1nnc2n(CCCN3CCN(C4CCCCC4)CC3)c(=O)c3ccccc3n12 [Compound 12] | – | – | – | 118 to 120 °C
Cc1nnc2n(CCCN3CCN(Cc4ccc(Oc5ccccc5)cc4)CC3)c(=O)c3ccccc3n12 (as salt: hydrochloride) [Compound 20, 2,4,5,7-Tetraaza-3-methyl-7-(3-(4-((4-phenoxyphenyl)methyl)piperazinyl)propyl)tricyclo[7.4.0.0<2,6>]trideca-1(13),3,5,9(10),11-pentaene-8-one] | – | – | – | 229 to 237 °C
Cc1nnc2n(CCCN3CCN(Cc4cccc(Oc5ccccc5)c4)CC3)c(=O)c3ccccc3n12 (as salt: hydrochloride) [Compound 17, 2,4,5,7-Tetraaza-3-methyl-7-(3-(4-((3-phenoxyphenyl)methyl)piperazinyl)propyl)tricyclo[7.4.0.0<2,6>]trideca-1(13),3,5,9(10),11-pentaene-8-one] | – | – | – | 225 to 230.5 °C
Cc1nnc2n(CCN3CCN(C(c4ccccc4)c4ccccc4)CC3)c(=O)c3ccccc3n12 [Compound 50] | – | – | – | 217 to 219 °C
Cc1nnc2n(CCCN3CCC(=C(c4ccccc4)c4ccccc4)CC3)c(=O)c3ccccc3n12 [Compound 7] | – | – | – | 157 to 159 °C
Cc1nnc2n(CCCN3CCC(C(c4ccccc4)c4ccccc4)CC3)c(=O)c3ccccc3n12 (as salt: hydrochloride) [Compound 14] | – | – | – | 172.8 to 190.5 °C
CCc1nnc2n(CCCN3CCN(C(c4ccccc4)c4ccccc4)CC3)c(=O)c3ccccc3n12 [Compound 27] | – | – | – | 199 to 201 °C
COc1ccc2c(c1)c(=O)n(CCCN1CCN(C(c3ccccc3)c3ccccc3)CC1)c1nnc(C)n21 [Compound 33] | – | – | – | 194 to 196 °C
Cc1nnc2n(CCCCN3CCC(C(c4ccccc4)c4ccccc4)CC3)c(=O)c3ccccc3n12 (as salt: hydrochloride) [Compound 56] | – | – | – | 166.5 to 180 °C
CCCc1nnc2n(CCCN3CCN(C(c4ccccc4)c4ccccc4)CC3)c(=O)c3ccccc3n12 [Compound 28] | 9.3 µM | > 160 µM | 1.4 µM | 150 to 152 °C
Cc1nnc2n(CCCN3CCCC(c4c[nH]c5ccccc45)C3)c(=O)c3ccccc3n12 (stereo not drawn) [Compound 5, 2,4,5,7-Tetraaza-7-(3-(3-indole-3-ylpiperidyl)propyl)-3-methyltricyclo[7.4.0.0<2,6>]trideca-1(13),3,5,9(10),11-pentaene-8-one] | 12.9 µM | 48.1 µM | – | 207 to 212 °C (dec.)
COc1cc2c(=O)n(CCCN3CCN(C(c4ccccc4)c4ccccc4)CC3)c3nnc(C)n3c2cc1OC [Compound 35] | – | – | – | 184 to 186 °C
Cc1nnc2n(CCCCN3CCN(C(c4ccccc4)c4ccccc4)CC3)c(=O)c3ccccc3n12 [Compound 55] | – | – | – | 157 to 159 °C
Cc1nnc2n(-c3cccc(N4CCC(C(c5ccccc5)c5ccccc5)CC4)c3)c(=O)c3ccccc3n12 [Compound 85] | – | – | – | 277 to 279 °C
